From US20120129870A1, “PIPERAZINYL DERIVATIVES USEFUL AS MODULATORS OF THE NEUROPEPTIDE Y2 RECEPTOR” (priority 2007, published 2012)

What was measured:
NPY Y2 receptor [1] = target: T1, NPY Y2 receptor (Homo sapiens, UniProt P49146); assay: Neuropeptide Y2 radioligand binding assay ([125I]PYY, KAN-Ts membranes); design: endogenous in cells; host or cells: KAN-Ts cells (membrane preparation); conditions: for Ki: apparent Ki=IC50/(1+C/KD); for IC50: KAN-Ts membranes endogenously expressing Y2, [125I]PYY (80 pM), 1 h at rt
T1 sequence (P49146 1-381): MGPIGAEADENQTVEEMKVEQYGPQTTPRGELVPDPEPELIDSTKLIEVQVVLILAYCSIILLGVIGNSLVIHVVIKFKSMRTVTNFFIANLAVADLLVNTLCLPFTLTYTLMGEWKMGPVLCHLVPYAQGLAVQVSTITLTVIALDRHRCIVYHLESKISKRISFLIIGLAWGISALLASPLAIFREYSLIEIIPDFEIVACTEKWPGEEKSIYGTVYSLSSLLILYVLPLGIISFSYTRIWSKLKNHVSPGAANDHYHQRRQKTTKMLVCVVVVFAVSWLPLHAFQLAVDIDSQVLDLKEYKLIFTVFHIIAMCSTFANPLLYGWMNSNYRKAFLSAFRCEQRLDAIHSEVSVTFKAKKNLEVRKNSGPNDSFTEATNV
Summary of the method: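 Membranes from KAN-Ts cells with endogenous Y2 receptors, incubated with 80 pM [125I]PYY ± compound for 1 h at rt in HEPES/NaCl/CaCl2/MgSO4 buffer, then filtered and counted. Nonspecific binding defined with […]. IC50 from sigmoidal fit; Ki = IC50/(1+C/KD).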

NPY Y2 receptor [2] = target: T1, NPY Y2 receptor; assay: Neuropeptide Y2 pKB assay (FLIPR, KAN-Ts cells stably expressing chimeric G proteins); type: cell-based; conditions: apparent pKB, modified Cheng-Prusoff correction
Procedure: The assay was performed using the fluorimetric imaging plate reader (FLIPR) format as described in Dautzenberg, F. M., Biochemical Pharmacology 2005, 69, 1493.
KAN-Ts cells stably expressing chimeric G proteins were seeded at a density of 100,000 cells into poly-d-lysine coated 384-well blackwall, clear-bottom microtiter plates (Corning, N.Y.). One day later, the medium was removed and 50 μl loading medium DMEM high glucose, without serum, supplemented with 10 mM HEPES-acid, 0.1% BSA, 5 mM probenecid and 2 μM Fluo-3AM was added. Cells were loaded for 1 h at 37° C., washed twice with 50 μl assay buffer (5 mM HEPES-acid, 140 mM NaCl, 1 mM MgCl2, 5 mM KCl, 10 mM glucose) and then 30 μl assay buffer was added. Cells were further pre-incubated at room temperature before adding agonists or agonists plus antagonists in 20 μl assay buffer and then measured on a T-channel fluorometric imaging plate reader (FLIPR, Molecular Devices, Sunnyvale, Calif.). Antagonistic potency values were converted to apparent pKB values using a modified Cheng-Prusoff correction. Apparent pKB was calculated as pKB=−log IC50/1+[conc agonist/EC50].

SMILES	Ki (NPY Y2 receptor [1]) [nM]	Kb (NPY Y2 receptor [2]) [nM]	IC50 (NPY Y2 receptor [1]) [nM]
CCC(CC)C(=O)Nc1ccc(N2CCN(C(c3ccccc3)c3ccccc3)CC2)c(C#N)c1 [Compound 304, N-[4-(4-Benzhydryl-piperazin-1-yl)-3-cyano-phenyl]-2-ethyl-butyramide]	4.7	501	–
CCc1noc(C(c2ccccc2)N2CCN(c3ccc(NC(=O)C(CC)CC)cc3F)CC2)n1 (centres unmarked) [Compound 1, 2-Ethyl-N-(4-{4-[(3-ethyl-[1,2,4]-oxadiazol-5-yl)-phenyl-methyl]-piperazin-1-yl}-3-fluoro-phenyl)-butyramide]	–	35.5	27
CCC(CC)C(=O)Nc1ccc(N2CCN(C(c3ccccc3)c3nc4ccccc4s3)CC2)c(C#N)c1 (centres unmarked) [Compound 169, N-{4-[4-(Benzothiazol-2-yl-phenyl-methyl)-piperazin-1-yl]-3-cyano-phenyl}-2-ethyl-butyramide]	–	50.1	39
N#Cc1cc(NC(=O)[C@@H]2CCOC2)ccc1N1CCN(C(c2ccccc2)c2ncco2)CC1 (some centres unmarked) [Compound 90, Tetrahydro-furan-3-carboxylic acid {3-cyano-4-[4-(oxazol-2-yl-phenyl-methyl)-piperazin-1-yl]-phenyl}-amide]	–	31.6	38
CCC(CC)C(=O)Nc1ccc(N2CCN(C(c3ccccc3)c3nc4ccccc4o3)CC2)c(C#N)c1 (centres unmarked) [Compound 166, N-{4-[4-(Benzooxazol-2-yl-phenyl-methyl)-piperazin-1-yl]-3-cyano-phenyl}-2-ethyl-butyramide]	–	79.4	7
CCC(CC)C(=O)Nc1ccc(N2CCN(C(c3ccccc3)c3nnc(C(CC)CC)o3)CC2)c(F)c1 (centres unmarked) [Compound 163, 2-Ethyl-N-[4-(4-{[5-(1-ethyl-propyl)-[1,3,4]oxadiazol-2-yl]-phenyl-methyl}-piperazin-1-yl)-3-fluoro-phenyl]-butyramide]	–	100	20
CCC(CC)C(=O)Nc1ccc(N2CCN(C(c3ccccc3)c3nc(C)no3)CC2)c(F)c1 (centres unmarked) [Compound 2, 2-Ethyl-N-(3-fluoro-4-{4-[(3-methyl-[1,2,4]-oxadiazol-5-yl)-phenyl-methyl]-piperazin-1-yl}phenyl)-butyramide]	–	39.8	27
CCC(CC)C(=O)Nc1ccc(N2CCN(C(c3ccccc3)c3noc(-c4cccnc4)n3)CC2)c(F)c1 (centres unmarked) [Compound 238, 2-Ethyl-N-(3-fluoro-4-{4-[phenyl-(5-pyridin-3-yl-[1,2,4]-oxadiazol-3-yl)-methyl]-piperazin-1-yl}-phenyl)-butyramide]	–	31.6	25
CCC(CC)C(=O)Nc1ccc(N2CCN(C(c3ccccc3)c3nc4ccccc4o3)CC2)c(F)c1 (centres unmarked) [Compound 165, N-{4-[4-(Benzooxazol-2-yl-phenyl-methyl)-piperazin-1-yl]-3-fluoro-phenyl}-2-ethyl-butyramide]	–	100	18
N#Cc1cc(NC(=O)C2CC2)ccc1N1CCN(C(c2ccccc2)c2cccnc2)CC1 (centres unmarked) [Compound 321, Cyclopropanecarboxylic acid {3-cyano-4-[4-(phenyl-pyridin-3-yl-methyl)-piperazin-1-yl]-phenyl}-amide]	11	31.6	–
CCc1nnc(C(c2ccccc2)N2CCN(c3ccc(NC(=O)C(CC)CC)cc3F)CC2)o1 (centres unmarked) [Compound 153, 2-Ethyl-N-(4-{4-[(5-ethyl-[1,3,4]-oxadiazol-2-yl)-phenyl-methyl]-piperazin-1-yl}-3-fluoro-phenyl)-butyramide]	–	39.8	39
CCC(CC)C(=O)Nc1ccc(N2CCN(C(c3ccccc3)c3noc(C)n3)CC2)c(F)c1 (centres unmarked) [Compound 239, 2-Ethyl-N-(3-fluoro-4-{4-[(5-methyl-[1,2,4]-oxadiazol-3-yl)-phenyl-methyl]-piperazin-1-yl}-phenyl)-butyramide]	–	12.6	13
CCC(CC)C(=O)Nc1ccc(N2CCN(C(c3ccccc3)c3cccnc3)CC2)c(C#N)c1 (centres unmarked) [Compound 317, N-{3-Cyano-4-[4-(phenyl-pyridin-3-yl-methyl)-piperazin-1-yl]-phenyl}-2-ethyl-butyramide]	4.3	31.6	–
CCC(CC)C(=O)Nc1ccc(N2CCN(C(c3ccc(OC)cc3)c3ncco3)CC2)c(C#N)c1 (centres unmarked) [Compound 141, N-(3-Cyano-4-{4-[(4-methoxy-phenyl)-oxazol-2-yl-methyl]-piperazin-1-yl}-phenyl)-2-ethyl-butyramide]	–	50.1	29
CCC(CC)C(=O)Nc1ccc(N2CCN(C(c3cccc(F)c3)c3ncco3)CC2)c(C#N)c1 (centres unmarked) [Compound 131, N-(3-Cyano-4-{4-[(3-fluoro-phenyl)-oxazol-2-yl-methyl]-piperazin-1-yl}-phenyl)-2-ethyl-butyramide]	–	12.6	7
CCC(CC)C(=O)Nc1ccc(N2CCN(C(c3ccccc3)c3ccccc3C)CC2)c(C#N)c1 (centres unmarked) [Compound 305, N-{3-Cyano-4-[4-(phenyl-o-tolyl-methyl)-piperazin-1-yl]-phenyl}-2-ethyl-butyramide]	36	316	–
CCC(CC)C(=O)Nc1ccc(N2CCN(C(c3ccccc3)c3ncco3)CC2)c(F)c1 (single isomer, unassigned) [Compound 59, 2-Ethyl-N-{3-fluoro-4-[4-(oxazol-2-yl-phenyl-methyl)-piperazin-1-yl]-phenyl}-butyramide]	–	200	96
CCC(CC)C(=O)Nc1ccc(N2CCN(C(c3ccccc3)c3noc(C(C)C)n3)CC2)c(F)c1 (centres unmarked) [Compound 82, 2-Ethyl-N-(3-fluoro-4-{4-[(5-isopropyl-[1,2,4]-oxadiazol-3-yl)-phenyl-methyl]-piperazin-1-yl}-phenyl)-butyramide]	–	50.1	22
Cc1noc(C)c1C(=O)Nc1ccc(N2CCN(C(c3ccccc3)c3ncco3)CC2)c(F)c1 (centres unmarked) [Compound 113, 3,5-Dimethyl-isoxazole-4-carboxylic acid {3-fluoro-4-[4-(oxazol-2-yl-phenyl-methyl)-piperazin-1-yl]-phenyl}-amide]	–	200	140
CCC(CC)C(=O)Nc1ccc(N2CCN(C(c3ccc(C#N)cc3)c3ncco3)CC2)c(C#N)c1 (centres unmarked) [Compound 145, N-(3-Cyano-4-{4-[(4-cyano-phenyl)-oxazol-2-yl-methyl]-piperazin-1-yl}-phenyl)-2-ethyl-butyramide]	–	63.1	33
Cc1noc(C)c1C(=O)Nc1ccc(N2CCN(C(c3ccccc3)c3ccccc3)CC2)c(C#N)c1 [Compound 302, N-{3-Cyano-4-[4-(diphenylmethyl)piperazin-1-yl]phenyl}-3,5-dimethylisoxazole-4-carboxamide]	14	501	–
CCC(CC)C(=O)Nc1ccc(N2CCN(C(c3ccccc3)c3cccnc3)CC2)c(F)c1 (centres unmarked) [Compound 24, 2-Ethyl-N-{3-fluoro-4-[4-(phenyl-pyridin-3-yl-methyl)-piperazin-1-yl]-phenyl}-butyramide]	–	79.4	40
CCC(CC)C(=O)Nc1ccc(N2CCN(C(c3ccccc3)c3ccncc3)CC2)c(C#N)c1 (centres unmarked) [Compound 315, N-{3-Cyano-4-[4-(phenyl-pyridin-4-yl-methyl)-piperazin-1-yl]-phenyl}-2-ethyl-butyramide]	4.4	50.1	–
CCC(CC)C(=O)Nc1cc(F)c(N2CCN(C(c3ccccc3)c3ncco3)CC2)c(F)c1 (centres unmarked) [Compound 243, N-{3,5-Difluoro-4-[4-(oxazol-2-yl-phenyl-methyl)-piperazin-1-yl]-phenyl}-2-ethyl-butyramide]	–	126	50
CCc1nc(C(c2ccccc2)N2CCN(c3ccc(NC(=O)C(CC)CC)cc3F)CC2)no1 (centres unmarked) [Compound 236, 2-Ethyl-N-(4-{4-[(5-ethyl-[1,2,4]-oxadiazol-3-yl)-phenyl-methyl]-piperazin-1-yl}-3-fluoro-phenyl)-butyramide]	–	15.8	23
CCC(CC)C(=O)Nc1ccc(N2CCN(C(c3ccccc3)c3ccccn3)CC2)c(F)c1 (centres unmarked) [Compound 33, 2-Ethyl-N-{3-fluoro-4-[4-(phenyl-pyridin-2-yl-methyl)-piperazin-1-yl]-phenyl}-butyramide]	–	20	18
CCC(CC)NC(=O)c1ccc(N2CCN(C(c3ccccc3)c3ncco3)CC2)c(F)c1 (centres unmarked) [Compound 46, N-(1-Ethyl-propyl)-3-fluoro-4-[4-(oxazol-2-yl-phenyl-methyl)-piperazin-1-yl]-benzamide]	–	–	1200
